Measurements published in patent publication US7071203B2, “Pharmaceutically acceptable salts of 20(s)-camptothecins” (Dr. Reddy's Laboratories Limited, priority 2001, dated 2006).
Where a name gives a salt, the structure may show the parent alone. Read-outs that look alike come from different tables or passages of the source.

Legend:
[1] = test system: MCF-7/ADR; assay: Sulforhodamine B growth inhibition, breast cell line MCF-7/ADR; format: cell-based, human; details: 48 h; for GI50: Homo sapiens, NCI/ADR-RES, read-out: Growth Inhibition (GI 50)
Protocol: (§1) Each test compound was screened against a battery of cell lines representing eight different types of cancers. In a typical procedure, 1×10^4 cells were seeded into each well of 96 well plate in 100 μL volume of RPMI 1640 medium containing antibiotics and 10% FCS.
(§2) The plates were incubated at 37° C. in presence of CO2. After 24 h, test compounds were evaluated at five 10-fold dilutions ranging from 100 to 0.01 μM. To each test well 100 μL of test compound solution was added and medium with vehicle was added to control wells and the plates were further incubated. After 48 h of incubation, plates were terminated by Sulforhodamine B method.
(§3) The optical density, which is proportional to protein mass, is then read by automated spectrophotometric plate reader at a wavelength of 515 nm. Readings were transferred to a microcomputer and mean 50% Growth Inhibition (GI50) and mean Total Growth Inhibition were calculated.

[2] = test system: UACC-62; assay: Sulforhodamine B growth inhibition, melanoma cell line UACC-62; format: cell-based, human; details: for GI50: Homo sapiens, read-out: Growth Inhibition (GI 50)
Protocol: as §1, §2, §3

[3] = test system: SF-268; assay: Sulforhodamine B growth inhibition, CNS cell line SF-268; format: cell-based, human; details: CNS: SF-268, 48 h; for GI50: Homo sapiens, read-out: Growth Inhibition (GI 50)
Protocol: as §1, §2, §3

[4] = test system: HOP-62; assay: Sulforhodamine B growth inhibition, lung cell line HOP-62; format: cell-based, human; details: LUNG: HOP-62, 48 h; for GI50: Homo sapiens, read-out: Growth Inhibition (GI 50)
Protocol: as §1, §2, §3

[5] = test system: OVCAR-8; assay: Sulforhodamine B growth inhibition, ovarian cell line OVCAR-8; format: cell-based, human; details: OVARIAN: OVCAR-8, 48 h; for GI50: Homo sapiens, read-out: Growth Inhibition (GI 50)
Protocol: as §1, §2, §3

[6] = test system: ACHN; assay: Sulforhodamine B growth inhibition, renal cell line ACHN; format: cell-based, human; details: 48 h; for GI50: Homo sapiens, read-out: Growth Inhibition (GI 50)
Protocol: as §1, §2, §3

[7] = test system: DU-145; assay: Sulforhodamine B growth inhibition, prostate cell line DU-145; format: cell-based, human; details: for GI50: Homo sapiens, read-out: Growth Inhibition (GI 50)
Protocol: as §1, §2, §3

[8] = test system: PC-3; assay: Sulforhodamine B growth inhibition, prostate cell line PC-3; format: cell-based, human; details: PROSTATE: PC-3, 48 h
Protocol: as §1, §2, §3

[9] = test system: SKOV-3; assay: Sulforhodamine B growth inhibition, ovarian cell line SKOV-3; format: cell-based, human
Protocol: as §1, §2, §3

[10] = test system: A 498; assay: Sulforhodamine B growth inhibition, renal cell line A 498; format: cell-based, human
Protocol: as §1, §2, §3

[11] = test system: MCF 7; assay: Sulforhodamine B growth inhibition, breast cell line MCF 7; format: cell-based, human
Protocol: as §1, §2, §3

[12] = test system: PA-1; assay: Sulforhodamine B growth inhibition, ovarian cell line PA-1; format: cell-based, human; details: OVARIAN: PA-1, 48 h
Protocol: as §1, §2, §3

[13] = test system: SW-620; assay: Sulforhodamine B growth inhibition, colon cell line SW-620; format: cell-based, human; details: COLON: SW-620, 48 h
Protocol: as §1, §2, §3

[14] = test system: H 522; assay: Sulforhodamine B growth inhibition, lung cell line H 522; format: cell-based, human
Protocol: as §1, §2, §3

[15] = Single dose oral pharmacokinetic studies; format: in vivo, Male Swiss Albino Mice
Protocol: Male Swiss Albino Mice (20–30 g) were used in the experiments. The animals were maintained under standard laboratory conditions and had free access to feed and water ad libitum. Before experimentation animals were fasted overnight (˜15 h) during which they had free access to water ad libitum.
An amount equivalent to 10 mg of drug was weighed accurately and transferred into a clean mortar and triturated to obtain a fine powder. To this 500 μl of DMSO (10%) was added to obtain a clear solution. To this 4.5 ml of sodium carboxy methyl cellulose (sodium CMC) was added to make up the volume to 5 ml. Based on the animal weight appropriate volume (body weight in grams×10=no. of μl of dose to be given) of the prepared solution was administered through oral gavage.
After dosing, at designated time points (0.5, 1, 2, 3, 5, 8 and 12 h) 100 μl of blood was collected from retro orbital plexus into 0.5 ml eppendorff tubes containing EDTA (5 μl of 200 mg/ml solution in Milli Q water). Blood was centrifuged at 12,800 rpm for 2 min and plasma was separated and immediately taken for analysis, without delay, in order to estimate both lactone and carboxylate forms of the compound.
50 μl plasma was transferred into a clean 2 ml micro centrifuge tube. To this ice cold methanol was added (450 μl) and vertex mixed for 15 sec to extract the compound. These contents were centrifuged for 2 min at 12,800 rpm dry centrifuge tube. Clear supernatant was separated in to a 300 μl of auto sampler vial maintained at 4° C. and 20 μl of this was injected into HPLC column. HPLC Conditions:
HPLC system (Shimadzu) consisted of system controller (SCL-10AVP), Isocratic pump (LC-10ATVP), auto sampler (SIL-10ADVP), fluorescence detector (RF-10AXL) and column oven at 25° C. (CTO-1OASVP) was controlled by Class-VP software. Sample was eluted through column (Supelcosil-LC318, 5μ, 4.6×250 mm, 300° A) with mobile phase [1% TEAA (pH=5.5):Acetonitrile:MeOH::80:15:5) pumped at 1.0 ml/min flow rate and eluent was detected using fluorescence detector set at Ex. 370 nm/Em. 537 nm. The approx. RTs were carboxylate (CA1=4.1 min, CA2=4.8 min) and lactone (LA1=7.9 min, LA2=11.6 min).
For the determination of drug concentration, peak area ratios of the drug to internal standard versus the concentration (range: 0.05–10 μg/ml) for both carboxylate and lactone forms were plotted separately and linear regression was applied using software “Sigma Plot” (Jandel Scientific version, 2.0, USA). Correlation coefficients (r^2) of 0.99 or better were obtained.
Pharmacokinetic parameters were calculated for both carboxylate and lactone forms separately by non-compartmental model analysis. The peak plasma concentration (Cmax) and the corresponding time (Tmax) were directly obtained from the raw data. The area under the plasma concentration versus time curve up to the last quantifiable time point, AUC(0-t) was obtained by the linear and log-linear trapezoidal summation. The AUC(0-t) extrapolated to infinity (i.e., AUC (0-∞)) by adding the quotient of Clast/Kel, where Clast represents the last measurable time concentration and Kel represents the apparent terminal rate constant. Kel was calculated by the linear regression of the log-transformed concentrations of the drug in the terminal phase. The half-life of the terminal elimination phase was obtained using the relationship t1/2=0.693/ Kel.

[16] = test system: U251; assay: Sulforhodamine B growth inhibition, CNS cell line U251; format: cell-based, human
Protocol: as §1, §2, §3

[17] = BREAST: MCF-7/ADR, Sulforhodamine B
[18] = MELANOMA: UACC-62, 48 h, Sulforhodamine B
[19] = PROSTATE: DU-145, 48 h, Sulforhodamine B
[20] = Homo sapiens, read-out: Growth Inhibition (GI 50)
[21] = Lactone, single oral dose, mice, plasma, n = 3
[22] = male, Swiss Albino, mouse, in vivo, po

With CC[C@@]1(O)C(=O)OCc2c1cc1n(c2=O)C(O)c2cc3c(CN(C)C)c(O)ccc3nc2-1 (stereo partly drawn) [Example 1, 10-Hydroxy-9-N,N-dimethylaminomethyl-5-hydroxy-20(S)-camptothecin hydrochloride] as the molecule, how does the “Total Growth Inhibition (TGI)” value [1, 17] read?
The value was 0.9 µM.

And the GI50 [1]?
Its GI50 is 0.25 µM.

And the GI50 ([2]; UACC-62, 48 h)?
The GI50 was 0.7 µM.

What about the “Total Growth Inhibition (TGI)” value [2, 18] of the same molecule?
Its value is 4.5 µM.

And the “Total Growth Inhibition (TGI)” value [3]?
The value was 90.0 µM.

What about the GI50 [3] of the same molecule?
The GI50 was 0.55 µM.

What about the GI50 [4] of the same molecule?
Its GI50 is 0.6 µM.

What about the “Total Growth Inhibition (TGI)” value [4] of the same molecule?
Its value is 25.0 µM.

And the GI50 [5]?
Its GI50 is 0.5 µM.

And the “Total Growth Inhibition (TGI)” value [5]?
The value was greater than 100 µM.

What about the “Total Growth Inhibition (TGI)” value [6] of the same molecule?
The value was 1.0 µM.

What about the GI50 [6] of the same molecule?
Its GI50 is 0.4 µM.

What about the GI50 ([7]; DU-145, 48 h) of the same molecule?
Its GI50 is 0.4 µM.

What about the “Total Growth Inhibition (TGI)” value [7, 19] of the same molecule?
Its value is 0.8 µM.

Which “Total Growth Inhibition (TGI)” value [1, 17] does the source give for CC[C@@]1(O)C(=O)OCc2c1cc1n(c2=O)C(OCCO)c2cc3c(CN(C)C)c(O)ccc3nc2-1 (stereo partly drawn) [Example 2, 10-Hydroxy-9-N,N-dimethylaminomethyl-5-(2′-hydroxyethoxy)-20(S)-camptothecin hydrochloride] here?
The value was 50.0 µM.

And the GI50 [1]?
The GI50 was 7.5 µM.

What about the GI50 ([2]; UACC-62, 48 h) of the same molecule?
The GI50 was 6 µM.

What about the “Total Growth Inhibition (TGI)” value [2, 18] of the same molecule?
Its value is 6.0 µM.

And the “Total Growth Inhibition (TGI)” value [3]?
Its value is greater than 100 µM.

And the GI50 [3]?
Its GI50 is 7.5 µM.

And the GI50 [4]?
Its GI50 is 8 µM.

What about the “Total Growth Inhibition (TGI)” value [4] of the same molecule?
The value was greater than 100 µM.

What about the GI50 [5] of the same molecule?
Its GI50 is 1 µM.

And the “Total Growth Inhibition (TGI)” value [5]?
Its value is 80.0 µM.

What about the “Total Growth Inhibition (TGI)” value [6] of the same molecule?
The value was 40.0 µM.

What about the GI50 [6] of the same molecule?
Its GI50 is 4 µM.

What about the GI50 ([7]; DU-145, 48 h) of the same molecule?
Its GI50 is 5.5 µM.

What about the “Total Growth Inhibition (TGI)” value [7, 19] of the same molecule?
The value was 25.0 µM.

Which results are given for CC[C@@]1(O)C(=O)OCc2c1cc1n(c2=O)C(OCCF)c2cc3c(CN(C)C)c(O)ccc3nc2-1 (stereo partly drawn) [Example 3, 10-Hydroxy-9-N,N-dimethylaminomethyl-5-(2′-fluoroethoxy)-20(S)-camptothecin hydrochloride]?
GI50 [8, 20]: 9 µM; Total Growth Inhibition (TGI) [8]: >100 µM; GI50 ([9]; Homo sapiens, SK-OV-3, OVARIAN: SKOV-3, 48 h, read-out: Growth Inhibition (GI 50)): 6 µM; Total Growth Inhibition (TGI) ([9]; OVARIAN: SKOV-3, 48 h): 40.0 µM; GI50 ([10]; Homo sapiens, A498, RENAL: A 498, 48 h, read-out: Growth Inhibition (GI 50)): 0.7 µM; Total Growth Inhibition (TGI) ([10]; RENAL: A 498, 48 h): 15.0 µM; Total Growth Inhibition (TGI) [1, 17]: >100 µM; GI50 [1, 17]: 8 µM; Total Growth Inhibition (TGI) ([11]; BREAST: MCF 7, 48 h): 10.0 µM; GI50 ([11]; Homo sapiens, MCF7, BREAST: MCF 7, 48 h, read-out: Growth Inhibition (GI 50)): 7.5 µM; GI50 [12, 20]: 1 µM; Total Growth Inhibition (TGI) [12]: 5.0 µM; GI50 [2, 18]: 1.5 µM; Total Growth Inhibition (TGI) [2, 18]: 8.0 µM; Total Growth Inhibition (TGI) [13]: >100 µM; GI50 [13, 20]: 60 µM; GI50 ([14]; Homo sapiens, NCI-H522, LUNG: H 522, 48 h, read-out: Growth Inhibition (GI 50)): 0.9 µM; Total Growth Inhibition (TGI) ([14]; LUNG: H 522, 48 h): 90.0 µM; Kel [15, 21]: 0.19 h⁻¹; T1/2β(4,6,8h)^@ [15, 21]: 422 min; AUC(0-inf) [15, 22]: 9.74 µM·h; AUC(0-t) [15, 22]: 6.1 µM·h; AUC(0–t) [15, 22]: 11.05 µM·h; AUC(0–∞) [15, 22]: 15.14 µM·h; Tmax [15, 22]: 15 min; GI50 [7, 19]: 4 µM; Total Growth Inhibition (TGI) [7, 19]: >100 µM; Total Growth Inhibition (TGI) ([16]; 48 h): >100 µM; GI50 ([16]; Homo sapiens, U-251, 48 h, read-out: Growth Inhibition (GI 50)): 1.5 µM
